Test results published in patent US12371421B2, “Solid forms of a PARP7 inhibitor” (Ribon Therapeutics, Inc., priority 2019, dated 2025).

Key:
Assay in all cases: Cancer cell growth inhibition (CellTiter-Glo)
Format in all cases: cell-based
SK-LU-1 = conditions: Homo sapiens; SK-LU-1, lung adenocarcinoma; 144 hours
Procedure: (§1) Cells were plated into 384-well plates at a pre-specified density in fetal bovine serum-containing media. Cells were treated with compound or vehicle (DMSO) 24 hrs later, and a day zero plate was collected for analysis. Test compound plates were incubated continuously for 144 hours before cells and cell growth was assessed using a luminescent cell viability assay (CellTiter-Glo, Promega). The GI50 was determined by correcting for the cell count at time zero (time of treatment) and plotting data as percent growth relative to vehicle-treated cells.

SNU-840 = conditions: SNU-840, malignant ovarian Brenner tumor; 144 hours
Procedure: as §1

NCI-H2066 = conditions: NCI-H2066, squamous cell lung carcinoma; 144 hours
Procedure: as §1

SCaBER = conditions: Homo sapiens, bladder squamous cell carcinoma, 144 hours
Procedure: as §1

TE-11 = conditions: Homo sapiens; TE-11, esophageal squamous cell carcinoma; 144 hours
Procedure: as §1

SF126 = conditions: Homo sapiens, SF-126; SF126, glioblastoma multiforme; 144 hours
Procedure: as §1

IA-LM = conditions: large cell lung carcinoma, 144 hours
Procedure: as §1

NCI-H1437 = conditions: Homo sapiens; NCI-H1437, lung adenocarcinoma; 144 hours
Procedure: as §1

TYK-nu = conditions: high grade ovarian serious adenocarcinoma, 144 hours
Procedure: as §1

AGS = conditions: Homo sapiens, gastric adenocarcinoma, 144 hours
Procedure: as §1

A101D = conditions: Homo sapiens, melanoma, 144 hours
Procedure: as §1

NCI-H647 = conditions: Homo sapiens; NCI-H647, lung adenosquamous carcinoma; 144 hours
Procedure: as §1

NCI-H2009 = conditions: Homo sapiens; NCI-H2009, lung adenocarcinoma; 144 hours
Procedure: as §1

NCI-H1648 = conditions: Homo sapiens; NCI-H1648, lung adenocarcinoma; 144 hours
Procedure: as §1

NUGC-3 = conditions: Homo sapiens; NUGC-3, gastric adenocarcinoma; 144 hours
Procedure: as §1

HCC1954 = conditions: Homo sapiens; HCC1954, ductal breast carcinoma; 144 hours
Procedure: as §1

NCI-H1944 = conditions: Homo sapiens; NCI-H1944, lung adenocarcinoma; 144 hours
Procedure: as §1

NCI-H2291 = conditions: Homo sapiens; NCI-H2291, lung adenocarcinoma; 144 hours
Procedure: as §1

Caki-1 = conditions: Homo sapiens; Caki-1, clear cell renal cell carcinoma; 144 hours
Procedure: as §1

NCI-H2087 = conditions: Homo sapiens; NCI-H2087, lung adenocarcinoma; 144 hours
Procedure: as §1

NCI-H2444 = conditions: Homo sapiens; NCI-H2444, non-small cell lung carcinoma; 144 hours
Procedure: as §1

GCT = conditions: Homo sapiens, undifferentiated pleiomorphic sarcoma, 144 hours
Procedure: as §1

LN-18 = conditions: Homo sapiens; LN-18, glioblastoma; 144 hours
Procedure: as §1

NCI-H2347 = conditions: Homo sapiens; NCI-H2347, lung adenocarcinoma; 144 hours
Procedure: as §1

COR-L105 = conditions: Homo sapiens; COR-L105, lung adenocarcinoma; 144 hours
Procedure: as §1

C[C@@H](COCCC(=O)N1CCN(c2ncc(C(F)(F)F)cn2)CC1)Nc1cn[nH]c(=O)c1C(F)(F)F [Compound 1, 5-[[(2S)-1-(3-oxo-3-[4-[5-(trifluoromethyl)pyrimidin-2-yl]piperazin-1-yl]propoxy)propan-2-yl]amino]-4-(trifluoromethyl)-2,3-dihydropyridazin-3-one]
GI50 (SK-LU-1): ≥ 1000 nM
GI50 (SNU-840): ≥ 1000 nM
GI50 (NCI-H2066): ≥ 1000 nM
GI50 (SCaBER): ≥ 1000 nM
GI50 (TE-11): ≥ 1000 nM
GI50 (SF126): ≥ 1000 nM
GI50 (IA-LM): < 100 nM
GI50 (NCI-H1437): ≥ 1000 nM
GI50 (TYK-nu): < 100 nM
GI50 (AGS): ≥ 1000 nM
GI50 (A101D): ≥ 1000 nM
GI50 (NCI-H647): < 100 nM
GI50 (NCI-H2009): ≥ 1000 nM
GI50 (NCI-H1648): ≥ 1000 nM
GI50 (NUGC-3): ≥ 1000 nM
GI50 (HCC1954): ≥ 1000 nM
GI50 (NCI-H1944): ≥ 1000 nM
GI50 (NCI-H2291): ≥ 1000 nM
GI50 (Caki-1): < 100 nM
GI50 (NCI-H2087): ≥ 1000 nM
GI50 (NCI-H2444): ≥ 1000 nM
GI50 (GCT): < 100 nM
GI50 (LN-18): ≥ 1000 nM
GI50 (NCI-H2347): < 100 nM
GI50 (COR-L105): 100 to 1000 nM
